The target in experiment [1] is BIR3 domain of human XIAP (residues 252-350) (Homo sapiens (Human), UniProt P98170). The experiment is described as follows: XIAP in vitro competitive displacement binding assay (fluorescence polarization). The note with it: for IC50: read-out: IC50 or PI Xiap: IC50.
In experiment [2] the test system is EVSA-T (human breast carcinoma). Nature of the experiment: Anti-proliferative activity, Alamar Blue assay, EVSA-T. In kind it is cell-based. Background: Alamar Blue is a resazurin reagent that responds to reducing activity.
In experiment [3] the target is BIR3 domain of human cIAP-1 (residues 267-363) (Homo sapiens (Human), UniProt Q13490). Nature of the experiment: cIAP-1 in vitro competitive displacement binding assay (fluorescence polarization; Probe A AVPIK(5&6FAM)-amide or Probe B AbuRPFK(5&6FAM)-amide).
Setting [4] is: Homo sapiens, EVSA-T, 72 hours, Alamar Blue, read-out: EVSA-T prolif (EC50).
Where [5] appears, read: Probe A AVPIK(5&6FAM)-amide, read-out: IC50 or PI cIAP1: IC50.
Where [6] appears, read: Probe B AbuRPFK(5&6FAM)-amide, read-out: IC50 or PI cIAP1: IC50.
The mark [7] stands for this setting: Homo sapiens, EVSA-T, 72 h, read-out: EVSA-T prolif (EC50).
[8] abbreviates: 3 h, Probe B, @ 0.012 μM, read-out: IC50 or PI cIAP1: PI.
Setting [9] is: 3 h, read-out: IC50 or PI cIAP1: PI.

One may read the IC50 as the concentration that gives 50% inhibition. What is called EC50 is the concentration that produces a half-maximal response.

Structures can show the parent of a compound that is named as a salt. Where two headings read alike, the source gives them in different places.

With `COC[C@H]1CN[C@H](C)CN1CC(=O)N1CC(C)(c2ccccc2)c2ccc(C#N)cc21` (mixture of isomers) [Example 136, 1-{2-[(2R,5R)-2-(Methoxymethyl)-5-methylpiperazin-1-yl]acetyl}-3-methyl-3-phenyl-2,3-dihydro-1H-indole-6-carbonitrile], in experiment [1], the IC50 came to 110 nM. In addition, the EC50 in experiment [2] (setting [4]) stood at 2800 nM.
With `C[C@@H]1CN(CC(=O)N2CCc3cc(=O)n(Cc4ccccc4)cc32)CCN1.Cl` [Example 39, 6-Benzyl-1-[2-((R)-3-methyl-piperazin-1-yl)-acetyl]-1,2,3,6-tetrahydro-pyrrolo[2,3-c]pyridin-5-one hydrochloride salt], in experiment [1] (1 h, @ 3 μM, read-out: IC50 or PI Xiap: PI), the inhibition at 3 µM was 55%. Besides, the inhibition at 1 µM in experiment [3] (3 h, Probe A, @ 1 μM, read-out: IC50 or PI cIAP1: PI) is 46%. The “EVSA-T prolif: % inhibition” value in experiment [2] (concentration not printed (cell truncated)) was −15% at.
`C[C@@H]1CN(CC(=O)N2CC(C)(C)c3ccc(Cl)cc32)[C@@H](CO)CN1` [Example 40, 1-(6-Chloro-3,3-dimethyl-2,3-dihydro-indol-1-yl)-2-((2R,5R)-2-hydroxymethyl-5-methyl-piperazin-1-yl)-ethanone hydrochloride salt]: the IC50 in experiment [1] was 960 nM; in experiment [3], less than 1000 nM; in experiment [3] (setting [5]), 820 nM. The inhibition at 10 µM in experiment [2] (Homo sapiens, EVSA-T, at 10 μM, read-out: EVSA-T prolif: % inhibition) was determined as 45%.
Turning to `C[C@@H]1CN(CC(=O)N2CCc3cc(F)c(S(=O)(=O)c4ccccc4)cc32)CCN1` [Example 41, 1-(6-Benzenesulfonyl-5-fluoro-2,3-dihydro-indol-1-yl)-2-((R)-3-methyl-piperazin-1-yl)-ethanone], the half-maximal inhibitory concentration (IC50) in experiment [1] is 470 nM; in experiment [3] (setting [5]), 1300 nM. In addition, in experiment [2] (setting [4]), the concentration giving a half-maximal response (EC50) came out at 5700 nM.
As for `C[C@@H]1CN(CC(=O)N2CC(C)(C)c3ccc(S(=O)(=O)c4ccccc4)cc32)CCN1` [Example 43, 1-(6-Benzenesulfonyl-3,3-dimethyl-2,3-dihydro-indol-1-yl)-2-((R)-3-methyl-piperazin-1-yl)-ethanone hydrochloride salt], the figures for the IC50 in experiment [1] and in experiment [3] (setting [5]) were 640 nM and 450 nM, respectively. In experiment [2] (setting [4]), the EC50 was found to be 2400 nM.
Turning to `COC[C@H]1CN[C@H](C)CN1CC(=O)N1CC(C)(C)c2cnc(Cc3cccc(C#N)c3)cc21` [Example 80, 3-[(1-{2-[(2R,5R)-2-(Methoxymethyl)-5-methylpiperazin-1-yl]acetyl}-3,3-dimethyl-1H,2H,3H-pyrrolo[3,2-c]pyridin-6-yl)methyl]benzonitrile hydrochloride salt], the 50% inhibitory concentration (IC50) in experiment [3] (setting [6]) is 33 nM. Also, in experiment [2] (setting [7]), the EC50 came to 780 nM.
Turning to `COC[C@H]1CN[C@H](C)CN1CC(=O)N1CC(C)(C)c2cnc(Cc3cccc(OC)c3)cc21` [Example 89, 2-[(2R,5R)-2-(Methoxymethyl)-5-methylpiperazin-1-yl]-1-{6-[(3-methoxyphenyl)methyl]-3,3-dimethyl-1H,2H,3H-pyrrolo[3,2-c]pyridin-1-yl}ethan-1-one, hydrochloride salt], the IC50 in experiment [3] (setting [6]) is 16 nM. Also, the EC50 in experiment [2] (setting [7]) was 990 nM.
In the case of `C[C@@H]1CN(CC(=O)N2CC(C)(C)c3cnc(Cc4ccccc4)cc32)[C@@H](C(=O)N(C)C)CN1` [Example 99, (2R,5R)-1-(2-{6-Benzyl-3,3-dimethyl-1H,2H,3H-pyrrolo[3,2-c]pyridin-1-yl}-2-oxoethyl)-N,N,5-trimethylpiperazine-2-carboxamide, hydrochloride salt], the IC50 in experiment [3] (setting [6]) was 12 nM. Moreover, in experiment [2] (setting [7]), the EC50 was 180 nM.
With `C[C@@H]1CN(CC(=O)N2CC(C)(COCc3ccccc3)c3cnc(Cc4ccccc4)cc32)[C@@H](C(=O)N(C)C)CN1` (stereo partly drawn) [Example 104, (2R,5R)-1-(2-{6-Benzyl-3-[(benzyloxy)methyl]-3-methyl-1H,2H,3H-pyrrolo[3,2-c]pyridin-1-yl}-2-oxoethyl)-N,N,5-trimethylpiperazine-2-carboxamide, hydrochloride salt], the inhibition at 0.01 µM in experiment [3] (3 h, Probe B, @ 0.01 μM, read-out: IC50 or PI cIAP1: PI) came to 71%. The EC50 in experiment [2] (setting [7]) amounted to 490 nM.
Consider `COC[C@H]1CN[C@H](C)CN1CC(=O)N1C[C@](C)(c2ccccc2)c2ccc(C#N)cc21` [Example 140, (3R)-1-{2-[(2R,5R)-2-(Methoxymethyl)-5-methylpiperazin-1-yl]acetyl}-3-methyl-3-phenyl-2,3-dihydro-1H-indole-6-carbonitrile], for which the IC50 in experiment [1] is 94 nM. Besides, the EC50 in experiment [2] (Homo sapiens, EVSA-T cell line, 72 hours, Alamar Blue, read-out: EC50, inhibition of cell growth) was less than 10000 nM; in experiment [2] (setting [4]), 8600 nM.
Consider `COC[C@H]1CN[C@H](C)CN1CC(=O)N1CC(C)(C)c2cc(-c3nc(C)no3)c(Cl)cc21` [Example 141, 1-[6-Chloro-3,3-dimethyl-5-(3-methyl-1,2,4-oxadiazol-5-yl)-2,3-dihydro-1H-indol-1-yl]-2-[(2R,5R)-2-(methoxymethyl)-5-methylpiperazin-1-yl]ethan-1-one], for which, in experiment [3] (setting [6]), the IC50 is 280 nM. The EC50 was less than 10000 nM in experiment [2] (Homo sapiens, EVSA-T, 72 h, read-out: EC50, inhibition of cell growth) and 9000 nM in experiment [2] (setting [7]).
As to `Cc1cnn(C[C@H]2CN[C@H](C)CN2CC(=O)N2CC(C)(C)c3cnc(Cc4ccccc4)cc32)c1` [Example 147, 1-{6-Benzyl-3,3-dimethyl-1H,2H,3H-pyrrolo[3,2-c]pyridin-1-yl}-2-[(2R,5R)-5-methyl-2-[(4-methyl-1H-pyrazol-1-yl)methyl]piperazin-1-yl]ethan-1-one hydrochloride], in experiment [1] (1 h, @ 0.04 μM, read-out: IC50 or PI Xiap: PI), the inhibition at 0.04 µM is 49%. Further, the EC50 in experiment [2] (setting [7]) came to 110 nM.
As for `C[C@@H]1CN(CC(=O)N2CC(C)(C)c3cnc(Cc4ccc(F)cc4F)cc32)[C@@H](CN2CCCC2=O)CN1` [Example 179, 1-{[(2R,5R)-1-(2-{6-[(2,4-Difluorophenyl)methyl]-3,3-dimethyl-1H,2H,3H-pyrrolo[3,2-c]pyridin-1-yl}-2-oxoethyl)-5-methylpiperazin-2-yl]methyl}pyrrolidin-2-one hydrochloride], the inhibition at […] in experiment [3] (setting [8]) came to 97%. Besides, in experiment [2] (setting [7]), the EC50 came to 4.4 nM.
Regarding `C[C@@H]1CN(CC(=O)N2CC(C)(C)c3cnc(C(C)(F)F)cc32)[C@@H](CN2CCCC2=O)CN1` [Example 184, dihydrochloride], the IC50 was less than 1000 nM in experiment [3] and 31 nM in experiment [3] (setting [6]). In addition, in experiment [2] (setting [7]), the EC50 came out at 650 nM.
On to `CCC(F)(F)c1cnc2c(c1)N(C(=O)CN1C[C@@H](C)NC[C@@H]1CN1CCCC1=O)CC2(C)C` [Example 190, 1-{[(2R,5R)-1-{2-[6-(1,1-Difluoropropyl)-3,3-dimethyl-1H,2H,3H-pyrrolo[3,2-b]pyridin-1-yl]-2-oxoethyl}-5-methylpiperazin-2-yl]methyl}pyrrolidin-2-one hydrochloride], for which the IC50 in experiment [3] (read-out: IC50 or PI cIAP1: IC50) turned out to be 29 nM. Besides, the EC50 in experiment [2] (setting [7]) was 400 nM.
Turning to `C[C@@H]1CN(CC(=O)N2CC(C)(C)c3ncc(Cc4ccc(F)cc4F)cc32)[C@@H](CN2CCCC2=O)CN1` [Example 199, 1-{[(2R,5R)-1-(2-{6-[(2,4-Difluorophenyl)methyl]-3,3-dimethyl-1H,2H,3H-pyrrolo[3,2-b]pyridin-1-yl}-2-oxoethyl)-5-methylpiperazin-2-yl]methyl}pyrrolidin-2-one dihydrochloride], in experiment [1], the IC50 was 63 nM. Also, the EC50 in experiment [2] (setting [7]) worked out at 5.6 nM.
Turning to `CC(C)CC(F)(F)c1cnc2c(c1)N(C(=O)CN1C[C@@H](C)NC[C@@H]1CN1CCCC1=O)CC2(C)C` [Example 216, 1-{[(2R,5R)-1-{2-[6-(1,1-Difluoro-3-methylbutyl)-3,3-dimethyl-1H,2H,3H-pyrrolo[3,2-b]pyridin-1-yl]-2-oxoethyl}-5-methylpiperazin-2-yl]methyl}pyrrolidin-2-one dihydrochloride], in experiment [3] (setting [9]), the inhibition at […] turned out to be 68%. Moreover, the EC50 in experiment [2] (setting [7]) worked out at 51 nM.
In the case of `C[C@@H]1CN(CC(=O)N2CC(C)(C)c3ncc(Cc4ccc(F)cc4)cc32)[C@@H](CN2CCOCC2)CN1` [Example 234, 1-{6-[(4-Fluorophenyl)methyl]-3,3-dimethyl-1H,2H,3H-pyrrolo[3,2-b]pyridin-1-yl}-2-[(2R,5R)-5-methyl-2-(morpholin-4-ylmethyl)piperazin-1-yl]ethan-1-one dihydrochloride], the half-inhibitory concentration (IC50) in experiment [1] is 74 nM. For the same compound, the EC50 in experiment [2] (setting [7]) is 9.6 nM.
For `CCCC(F)(F)c1cnc2c(c1)N(C(=O)CN1C[C@@H](C)NC[C@@H]1CN1CCOCC1)CC2(C)C` [Example 238, 1-[6-(1,1-Difluorobutyl)-3,3-dimethyl-1H,2H,3H-pyrrolo[3,2-b]pyridin-1-yl]-2-[(2R,5R)-5-methyl-2-(morpholin-4-ylmethyl)piperazin-1-yl]ethan-1-one hydrochloride], the inhibition at […] in experiment [3] (setting [8]) amounted to 69%. The EC50 in experiment [2] (setting [7]) worked out at 68 nM.
Regarding `C[C@@H]1CN(CC(=O)N2CC(C)(C)c3ncc(Cc4ccc(F)cc4)cc32)[C@@H](CN2CC[C@@H](F)C2)CN1` [Example 241, 1-{6-[(4-Fluorophenyl)methyl]-3,3-dimethyl-1H,2H,3H-pyrrolo[3,2-b]pyridin-1-yl}-2-[(2R,5R)-2-{[(3R)-3-fluoropyrrolidin-1-yl]methyl}-5-methylpiperazin-1-yl]ethan-1-one dihydrochloride], the inhibition at […] in experiment [3] (setting [9]) came to 98%. In addition, the EC50 in experiment [2] (setting [7]) came out at 7.2 nM.
On to `C[C@@H]1CN(CC(=O)N2CC(C)(C)c3ncc(Cc4ccccc4F)cc32)[C@@H](CN2CC[C@@H](F)C2)CN1` [Example 250, 1-{6-[(2-Fluorophenyl)methyl]-3,3-dimethyl-1H,2H,3H-pyrrolo[3,2-b]pyridin-1-yl}-2-[(2R,5R)-2-{[(3R)-3-fluoropyrrolidin-1-yl]methyl}-5-methylpiperazin-1-yl]ethan-1-one dihydrochloride], for which the inhibition at […] in experiment [3] (setting [9]) came out at 89%. In addition, the 50% effective concentration (EC50) in experiment [2] (setting [7]) turned out to be 16 nM.

For the origin of these results see patent publication US9018214B2, “Bicyclic heterocycle compounds and their uses in therapy” (Astex Therapeutics Limited, priority 2011, dated 2015).
